Where “and” joins values, the source holds several entries; their conditions need not be identical. Identical values can stand only once. Entries after “also recorded” stand apart in the source; their conditions may differ.
Experiments:
[1] = test system: HEK293T cells; assay: Chemoproteomic profiling, proteins enriched by alkyne probes; type: cell-based, human; conditions: 10 μM probe, 1 h; log2 ratio ≥0.58, p-value ≤0.05, #unique peptides ≥2
Procedure: (§1) HEK293T cells were treated for 1 h with probes 2j, 2k, or 2l (10 μM) or the DMSO vehicle. Competition-based experiments were also conducted where cells were pretreated with parent hits 2d (40 μM) or 2e (40 μM) for 1 h, before the addition of alkyne-containing probes 2j (10 μM) or 2k (10 μM), respectively. Following incubation, treated cells were lysed and conjugated with biotin-azide by Cu-click, and biotinylated proteins were enriched using NeutrAvidin beads. Enriched proteins were digested with LysC and trypsin, prior to analysis by LC–MS/MS (Figure 4b). […]
(§2) 6.2. Chemoproteomics workflow
(§3) Acetylation of NeutrAvidin agarose slurry:
(§4) NeutrAvidin agarose slurry (10 mL) (Thermo Fisher Scientific, 29204) was centrifuged (2 min, 2000 rpm) prior to removal of the supernatant. The beads were washed three times with PBS. PBS (9 mL) and Sulfo-NHS-acetate (482 μL, 400 mM in DMSO) (Thermo Fisher Scientific, 26777) were added, the beads were incubated at room temperature for 30 min on a falcon tube roller, and then centrifuged (2 min, 2000 rpm). Supernatant was removed and the incubation step with freshly made NHS-acetate was repeated. The reaction was quenched by adding Tris (2 mL, 1 M, pH 7.5). The beads were washed once with PBS and twice with 20% EtOH. 20% EtOH (5 mL) was added, and the beads were stored at 4 °C.
Chemoproteomics workflow:
HEK293T cell line (human origin, The Francis Crick Institute cell service) was used for this study. The cells were maintained at 37 °C with 5% CO2 in DMEM media supplemented with 10% fetal bovine serum and 1% L-Glutamine–Penicillin–Streptomycin solution (200 mM L-glutamine, 10,000 U/mL penicillin and 10 mg/mL streptomycin).
HEK293T cells were treated in triplicate with the parent compounds 2d and 2e (40 μM final concentration) or DMSO vehicle for 1 h at 37 °C in serum free media followed by a 1 h treatment with the probes 2j, 2k and 2l (10 μM final concentration) or DMSO vehicle.
(§5) Media was removed and cells were washed with PBS. […] Protein concentration of each lysate was determined using a BCA assay (Thermo Fisher Scientific, 23227). […]

[2] = biological target: T1, CAII (Homo sapiens, UniProt P00918); assay: Single shot screen of chemoproteomic probes, intact protein LC-MS; type: binding; set-up: purchased Sigma Aldrich C6624-500UG; host or cells: E. coli; conditions: 1 μM CAII, 50 μM SF, 4 °C, 24 h
Text: Hits from the CAII screen were progressed to chemoproteomic profiling to determine cellular target engagement and to measure their off-target profiles. SFs 2d and 2e were functionalized with an alkyne handle at the linking amide group to give probes 2j and 2k. A structurally similar negative control was also designed by substitution of the sulfonamide for a methoxy group, 2l (Figure 4a). […] The proteins engaged by these three probes were subsequently studied in HEK293T cells. […]
6.1. Single shot screen of chemoproteomic probes against CAII
The (synthesized and purified) active probes 2j, and 2k, as well as negative control 2l, were plated into a Greiner 384 white low volume plate from a 10 mM source in DMSO. Purified CAII diluted from original stock into a buffer made up of HEPES (pH 7.5, 25 mM) and NaCl (50 mM) in distilled MS-grade water (15 µL per well) was subsequently added across the plate. Final concentrations: 1 µM protein; 50 µM SF. The plate was sealed, centrifuged (1 min, 1000 rpm), incubated at 4 °C for 24 h, and subsequently analyzed by intact protein LC-MS. Modification yields were measured as 78% for 2j and 95% for 2k.
6.2. Chemoproteomics workflow […]
Chemoproteomics workflow: […]
Samples were incubated with acetylated NeutrAvidin agarose slurry (100 µL) (pre-washed three times with 0.2% SDS in HEPES (50 mM, pH 8.0)) on a combinatorial microlute plate (Porvair, 240002) for 2 h. The plate was centrifuged (1 min, 700 g) to remove supernatants.
The beads were washed three times with lysis buffer and 0.2% SDS in HEPES (50 mM, pH 8.0). The proteins were digested on-bead overnight at 37 °C with LysC (60 μL, 0.004 μg/μL) in HEPES (50 mM, pH 8.0). The supernatants were collected (1 min, 700 g) on a fresh plate and trypsin (30 μL, 0.006 μg/μL) in HEPES (50 mM, pH 8.0) was added to each sample. The samples were incubated for 4 h at 37 °C and acidified with 20% formic acid (10 μL).
The peptide samples were cleaned-up using C18 96-well plate (BioPureSPE Macro 96-Well, 100 mg PROTO C18, The Nest Group). The wells were conditioned with acetonitrile (300 μL) (centrifuged for 1 min at 50 g) and equilibrated twice with 0.1% TFA (300 μL) (centrifuged for 1 min at 150 g). 0.1% TFA (100 μL) was added to digest samples, and these were subsequently loaded on the plate (centrifuged for 1 min at 150 g). The samples were washed twice with 0.1% TFA (200 μL) (centrifuged for 1 min at 150 g). The plate was centrifuged once more at 200 g for 1 min. The peptides were eluted in two steps with 0.1% TFA (150 μL) in 50% acetonitrile

[3] = biological target: T1, CAII; assay: Chemoproteomic target engagement of CAII in cells; type: cell-based; conditions: HEK293T cells, 10 μM probe, 1 h, vs DMSO
Procedure: as §1, §2, §3
as §4, with “The beads were washed once with PBS and twice with 20% EtOH. 20% EtOH (5 mL) was added, and the beads were stored at 4 °C.” left out
as §5

[4] = biological target: BCL6 BTB/POZ domain (Homo sapiens, UniProt P41182, C67R/C84N/C8Q); assay: Conventional differential scanning fluorimetry (DSF); type: binding; set-up: hBCL6-Flag 3Cmut (5-129) produced in house; FLAG (C); made in house
Procedure: We subsequently analyzed protein-fragment interactions using differential scanning fluorimetry (DSF) to explore the impact of these binding events on protein stability.[45] […] […]; this illustrates the impact of covalent modification on protein–ligand binding. […]
8.2. Conventional differential scanning fluorimetry (DSF)
BCL6-SF covalent complex preparation:
SFs 2f–i, 2p, 2q, 2s, and 2t in DMSO-d 6 (200 mM stock) or pure DMSO-d 6 were added to crystallizable BCL6 BTB/POZ domain (10 µM) in 20 mM Tris pH 8.5 and 200 mM NaCl. The reactions were incubated at 20 °C for 6 h (meta-substituted benzamide fragments) or 24 h (azetidinyl/piperidinyl fragments). Final concentrations: 10 µM protein, 500 µM SF, DMSO 0.25% v/v in 200 µL. Unreacted compound and DMSO-d 6 were removed by buffer-exchanging protein solutions into 20 mM Tris pH 8.5, 200 mM NaCl and 5% v/v glycerol inside Vivaspin 500 PES Centrifugal Concentration units. The protein was concentrated to 0.6–1.3 mg/mL within the units, according to UV-vis absorption spectrophotometry via a Nanodrop ND-1000 instrument. Protein was flash frozen using a dry ice/ethanol bath prior to […]
Differential scanning fluorimetry assay:
GSK137 (40 mM stock) or pure DMSO-d 6 were added to crystallizable BCL6 BTB/POZ domain (11 µM) in 20 mM Tris pH 8.5, 200 mM NaCl and 5% v/v glycerol to give solutions containing: 11 µM protein, DMSO 0.63% v/v and 222 µM GSK137 (where applicable).
Concentrated protein-SF complexes were also thawed and diluted to 11 µM in 20 mM Tris pH 8.5, […] and 5% v/v glycerol.
SYPRO Orange dye (Invitrogen S6650) in extra dilution buffer (50×, eq. 1% v/v DMSO) was added to give assay-ready solutions with final concentrations: 10 µM protein, SYPRO 5×, DMSO 0.1% v/v in volume 80 µL for the protein-SF covalent complexes or 10 µM protein, SYPRO 5×, DMSO 0.6% v/v in volume 100 µL with and without 200 µM GSK137.
Each solution was aliquoted (3 × 20 µL) into wells of an opaque 384-well PCR microplate (Axygen PCR-384-LC480-W) and coated with silicone oil DC 200 (5 µL; Fluka Chemicals 85413). The microplate was centrifuged (1 min, 200 g) prior to insertion into a Fluodia T70 spectrophotometer (Photal Instruments). The fluorescence intensity was detected (emission wavelength: […]) as the plate instrument interior was heated from 27–75 °C using a temperature stepping mode (waiting time before measurement: 60 s; fluorescence measurement interval: 45 s). The approximate temperature gradient was 0.5 °C min-1.
The fluorescence intensity data from the individual replicates of each sample type were normalized and identically truncated within GraphPad Prism 5.0.4.11 These values were subsequently fitted to equation (4) corresponding to a Boltzmann sigmoid in order to obtain the melting temperature (“V50”; T m) of the protein:
Y=BOTTOM+((TOP+BOTTOM)/(1+exp((V50–X)/SLOPE))) (4)
The three obtained T m values were averaged to give a final T m value in each case. The normalized fluorescence data for the three replicates of each sample were averaged to yield a single dataset for each case, which were then plotted in GraphPad Prism 5.0.4 to give the plots shown in the manuscript.11
Table S9. Thermal melting temperatures of unmodified and covalently modified BCL6 BTB/POZ domain as determined by differential scanning fluorimetry measurements.
The arithmetic mean and standard deviation from three replicates are shown.
Hit Chemotype Protein Species Tm / °C ΔT m / °C […]
meta-Substituted Benzamide BCL6 + 2g 70.4 ± 0.3 +11.7
Azetidinyl Fragments BCL6 + 2h 55.5 ± 0.1 −3.2 […]
8.3. Protocol for kinetic analyzes (BCL6)
The (resynthesized and purified) SF hits (2f–i) were plated into seven Greiner 384 white low volume plate from a 10 mM source in DMSO. Differing volumes were added such that the final concentrations for each compound would be: 100, 50, 20, 10, or 5 µM after adding 15 µL of protein stock solution per well. […]

[5] = test system: BCL6; set-up: method as in PMID 34274316; conditions: cited from earlier work

| Structure (SMILES) | number of proteins enriched by comparison to DMSO control [1] | covalent modification of purified CAII [2] | modification yield [2] [%] | enrichment of CAII [3] | Tm ([4]; 10 μM protein, covalent complex (500 μM SF, 6 or 24 h) or 200 μM GSK137, mean ± SD, three replicates) [°C] | ΔTm ([4]; relative to unmodified BCL6) | biochemical pIC50 [5] |
| --- | --- | --- | --- | --- | --- | --- | --- |
| C#CCN(Cc1cccc(S(N)(=O)=O)c1)C(=O)Cc1ccc(S(=O)(=O)F)cc1 [2j] | 523 | covalently modified CAII | 78 | some enrichment | – | – | – |
| C#CCN(Cc1cccc(OC)c1)C(=O)Cc1ccc(S(=O)(=O)F)cc1 [2l] | 447 | Negligible modification; also recorded: did not | – | – | – | – | – |
| Cc1ncccc1[C@H]1C[C@@H](c2cccc3nc(N)ccc23)Nc2c(F)cnn21 [GSK137, reference compound] | – | – | – | – | > 72 | > 12.3 °C and ~12 °C | 8 |
| C#CCN(CCc1ccc(S(N)(=O)=O)cc1)C(=O)Cc1ccc(S(=O)(=O)F)cc1 [2k] | 501 | covalently modified CAII | 95 | some enrichment | – | – | – |
